Molecular target: T1, NIK (Homo sapiens, UniProt Q99558)
T1 construct: Both assays utilize a truncated form of NIK containing only the catalytic domain; made in house; host or cells: baculovirus expression system (insect cells implied)
Test: homogenous time resolved fluorescence (HTRF) assay for NIK Ki measurement
Type: biochemical
Conditions: truncated NIK (catalytic domain only), autophosphorylation; 10 nM enzyme; 20, 100, 200 or 500 μM ATP; room temperature, 2 hours; read-out: Ki activity in the homogenous time resolved fluorescence (HTRF) assay for NIK

T1 sequence (Q99558 400-655 limits assumed): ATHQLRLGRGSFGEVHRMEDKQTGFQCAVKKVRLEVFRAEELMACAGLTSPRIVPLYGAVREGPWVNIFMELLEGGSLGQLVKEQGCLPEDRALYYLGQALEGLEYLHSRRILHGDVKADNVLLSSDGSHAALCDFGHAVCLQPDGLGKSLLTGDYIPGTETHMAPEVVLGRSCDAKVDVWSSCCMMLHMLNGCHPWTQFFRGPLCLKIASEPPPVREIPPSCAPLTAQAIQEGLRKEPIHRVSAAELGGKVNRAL

Row | SMILES | Ki [nM]
1 | CC(O)(C#Cc1ccc2c(c1)N(c1ccnc(N)n1)CC2)c1ccncc1 (centres unmarked) [Example 272, 4-(1-(2-Amino-4-pyrimidinyl)-2,3-dihydro-1H-indol-6-yl)-2-(4-pyridinyl)-3-butyn-2-ol] | 1000 to 30000
2 | CC(O)(C#Cc1ccc2c(c1)N(c1ccnc(N)n1)CC2)c1cccs1 (centres unmarked) [Example 273, 4-(1-(2-Amino-4-pyrimidinyl)-2,3-dihydro-1H-indol-6-yl)-2-(2-thienyl)-3-butyn-2-ol] | < 1000
3 | CC(O)(C#Cc1ccc2c(c1)N(c1ccnc(N)n1)CC2)c1ccsc1 (centres unmarked) [Example 274, 4-(1-(2-Amino-4-pyrimidinyl)-2,3-dihydro-1H-indol-6-yl)-2-(3-thienyl)-3-butyn-2-ol] | < 1000
4 | Cc1ccc(C(C)(O)C#Cc2ccc3c(c2)N(c2ccnc(N)n2)CC3)o1 (centres unmarked) [Example 275, 4-(1-(2-Amino-4-pyrimidinyl)-2,3-dihydro-1H-indol-6-yl)-2-(5-methyl-2-furanyl)-3-Butyn-2-ol] | < 1000
5 | CC(O)(C#Cc1ccc2c(c1)N(c1ccnc(N)n1)CC2)c1nccs1 (centres unmarked) [Example 276, 4-(1-(2-Amino-4-pyrimidinyl)-2,3-dihydro-1H-indol-6-yl)-2-(1,3-thiazol-2-yl)-3-butyn-2-ol] | < 1000
6 | Cc1csc(C(C)(O)C#Cc2ccc3c(c2)N(c2ccnc(N)n2)CC3)c1 (centres unmarked) [Example 277, 4-(1-(2-amino-4-pyrimidinyl)-2,3-dihydro-1H-indol-6-yl)-2-(4-methyl-2-thienyl)-3-butyn-2-ol] | < 1000
7 | Cc1ccsc1C(C)(O)C#Cc1ccc2c(c1)N(c1ccnc(N)n1)CC2 (centres unmarked) [Example 278, 4-(1-(2-Amino-4-pyrimidinyl)-2,3-dihydro-1H-indol-6-yl)-2-(3-methyl-2-thienyl)-3-butyn-2-ol] | < 1000
8 | Cc1cc(C(C)(O)C#Cc2ccc3c(c2)N(c2ccnc(N)n2)CC3)c(C)o1 (centres unmarked) [Example 279, 4-(1-(2-Amino-4-pyrimidinyl)-2,3-dihydro-1H-indol-6-yl)-2-(2,5-dimethyl-3-furanyl)-3-Butyn-2-ol] | 1000 to 30000
9 | Cc1ccc(C(C)(O)C#Cc2ccc3c(c2)N(c2ccnc(N)n2)CC3)s1 (centres unmarked) [Example 280, 4-(1-(2-Amino-4-pyrimidinyl)-2,3-dihydro-1H-indol-6-yl)-2-(5-methyl-2-thienyl)-3-butyn-2-ol] | < 1000
10 | CC(O)(C#Cc1ccc2c(c1)N(c1ccnc(N)n1)CC2)c1ccc(Cl)s1 (centres unmarked) [Example 281, 4-(1-(2-Amino-4-pyrimidinyl)-2,3-dihydro-1H-indol-6-yl)-2-(5-chloro-2-thienyl)-3-butyn-2-ol] | < 1000
11 | CN1CCC2(CC1)CN(c1nc(N)ncc1Cl)c1cc(C#CC(C)(O)c3nccs3)ccc12 (centres unmarked) [Example 282, 4-(1-(2-Amino-5-chloro-4-pyrimidinyl)-1′-methyl-1,2-dihydrospiro[indole-3,4′-piperidin]-6-yl)-2-(1,3-thiazol-2-yl)-3-butyn-2-ol] | < 1000
12 | Cc1nc(C)c(C(C)(O)C#Cc2ccc3c(c2)N(c2ccnc(N)n2)CC3)s1 (centres unmarked) [Example 283, 4-(1-(2-Amino-4-pyrimidinyl)-2,3-dihydro-1H-indol-6-yl)-2-(2,4-dimethyl-1,3-thiazol-5-yl)-3-butyn-2-ol] | 1000 to 30000
13 | CC(O)(C#Cc1ccc2c(c1)N(c1ccnc(N)n1)CC2)c1sccc1Cl (centres unmarked) [Example 284, 4-(1-(2-Amino-4-pyrimidinyl)-2,3-dihydro-1H-indol-6-yl)-2-(3-chloro-2-thienyl)-3-butyn-2-ol] | < 1000
14 | Cc1nc(C(C)(O)C#Cc2ccc3c(c2)N(c2ccnc(N)n2)CC3)sc1C (centres unmarked) [Example 285, 4-(1-(2-Amino-4-pyrimidinyl)-2,3-dihydro-1H-indol-6-yl)-2-(4,5-dimethyl-1,3-thiazol-2-yl)-3-Butyn-2-ol] | 1000 to 30000
15 | Cc1csc(C(C)(O)C#Cc2ccc3c(c2)N(c2ccnc(N)n2)CC3)n1 (centres unmarked) [Example 287, 4-(1-(2-Amino-4-pyrimidinyl)-2,3-dihydro-1H-indol-6-yl)-2-(4-methyl-1,3-thiazol-2-yl)-3-Butyn-2-ol] | 1000 to 30000
16 | Cc1nc(C(C)(O)C#Cc2ccc3c(c2)N(c2ccnc(N)n2)CC3)cs1 (centres unmarked) [Example 288, 4-(1-(2-Amino-4-pyrimidinyl)-2,3-dihydro-1H-indol-6-yl)-2-(2-methyl-1,3-thiazol-4-yl)-3-butyn-2-ol] | < 1000
17 | Cc1cnc(C(C)(O)C#Cc2ccc3c(c2)N(c2ccnc(N)n2)CC3)s1 (centres unmarked) [Example 289, 4-(1-(2-Amino-4-pyrimidinyl)-2,3-dihydro-1H-indol-6-yl)-2-(5-methyl-1,3-thiazol-2-yl)-3-Butyn-2-ol] | < 1000
18 | CC(O)(C#Cc1ccc2c(c1)N(c1ccnc(N)n1)CC2)c1cccnc1 (centres unmarked) [Example 290, 4-(1-(2-Amino-4-pyrimidinyl)-2,3-dihydro-1H-indol-6-yl)-2-(3-pyridinyl)-3-butyn-2-ol] | < 1000
19 | CC(O)(C#Cc1ccc2c(c1)N(c1ccnc(N)n1)CC2)c1ncco1 (centres unmarked) [Example 291, 4-(1-(2-amino-4-pyrimidinyl)-2,3-dihydro-1H-indol-6-yl)-2-(1,3-oxazol-2-yl)-3-butyn-2-ol] | < 1000

Row | SMILES | Ki [nM]
20 | CC(O)(C#Cc1ccc2ncc(-c3ccnc(N)n3)n2c1)c1nccs1 (centres unmarked) [Example 292, 4-(3-(2-Amino-4-pyrimidinyl)imidazo[1,2-a]pyridin-6-yl)-2-(1,3-thiazol-2-yl)-3-butyn-2-ol] | < 1000
21 | CC(O)(C#Cc1ccc2c(c1)N(c1ccnc(N)n1)CC2)C1CCCC1 (centres unmarked) [Example 293, 4-(1-(2-Amino-4-pyrimidinyl)-2,3-dihydro-1H-indol-6-yl)-2-cyclopentyl-3-butyn-2-ol] | < 1000
22 | C[C@@](O)(C#Cc1ccc2c(c1)N(c1ccnc(N)n1)CC2)c1nccs1 [Example 294, (2R)-4-(1-(2-amino-4-pyrimidinyl)-2,3-dihydro-1H-indol-6-yl)-2-(1,3-thiazol-2-yl)-3-Butyn-2-ol] | < 1000
23 | Cc1[nH]c2ccc(C#CC(C)(O)c3nccs3)cc2c1-c1ccncc1 (centres unmarked) [Example 295, 4-(2-Methyl-3-(4-pyridinyl)-1H-indol-5-yl)-2-(1,3-thiazol-2-yl)-3-butyn-2-ol] | < 1000
24 | C[C@@](O)(C#Cc1ccc2ncc(-c3nc(N)ncc3Cl)n2c1)c1nccs1 [Example 296, (2R)-4-(3-(2-amino-5-chloro-4-pyrimidinyl)imidazo[1,2-a]pyridin-6-yl)-2-(1,3-thiazol-2-yl)-3-butyn-2-ol] | < 1000
25 | C[C@](O)(C#Cc1ccc2c(c1)N(c1ccnc(N)n1)CC2)c1nccs1 [Example 297, (2S)-4-(1-(2-amino-4-pyrimidinyl)-2,3-dihydro-1H-indol-6-yl)-2-(1,3-thiazol-2-yl)-3-butyn-2-ol] | < 1000
26 | Nc1ncc(Cl)c(-c2cnc3ccc(C#CC4(O)CCCC4)cn23)n1 [Example 298, 1-((3-(2-amino-5-chloro-4-pyrimidinyl)imidazo[1,2-a]pyridin-6-yl)ethynyl)-cyclopentanol] | < 1000
27 | CC(O)(C#Cc1ccc2ccn(-c3ccncc3)c2c1)c1nccs1 (centres unmarked) [Example 299, 4-(1-(4-Pyridinyl)-1H-indol-6-yl)-2-(1,3-thiazol-2-yl)-3-butyn-2-ol] | < 1000
28 | Cc1cnc(C(C)(O)C#Cc2ccc3ncc(-c4nc(N)ncc4Cl)n3c2)s1 (centres unmarked) [Example 300, 4-(3-(2-Amino-5-chloro-4-pyrimidinyl)imidazo[1,2-a]pyridin-6-yl)-2-(5-methyl-1,3-thiazol-2-yl)-3-butyn-2-ol] | < 1000
29 | Cc1cnc(C(C)(O)C#Cc2ccc3c(c2)N(c2nc(N)ncc2Cl)CC32CN(C)C2)s1 (centres unmarked) [Example 301, 4-(1′-(2-Amino-5-chloro-4-pyrimidinyl)-1-methyl-1′,2′-dihydrospiro[azetidine-3,3′-indol]-6′-yl)-2-(5-methyl-1,3-thiazol-2-yl)-3-butyn-2-ol] | < 1000
30 | CC(O)(C#Cc1ccc2ncc(-c3ccncn3)n2c1)c1nccs1 (centres unmarked) [Example 302, 4-(3-(4-pyrimidinyl)imidazo[1,2-a]pyridin-6-yl)-2-(1,3-thiazol-2-yl)-3-butyn-2-ol] | < 1000
31 | Cc1cnc(C(C)(O)C#Cc2ccc3c(c2)N(c2nc(N)ncc2Cl)CC3(C)C)s1 (centres unmarked) [Example 303, 4-(1-(2-Amino-5-chloro-4-pyrimidinyl)-3,3-dimethyl-2,3-dihydro-1H-indol-6-yl)-2-(5-methyl-1,3-thiazol-2-yl)-3-butyn-2-ol] | < 1000
32 | CC(O)(C#Cc1ccc2c(c1)N(c1nc(N)ncc1Cl)CC2(C)C)c1ccccn1 (centres unmarked) [Example 304, 4-(1-(2-Amino-5-chloro-4-pyrimidinyl)-3,3-dimethyl-2,3-dihydro-1H-indol-6-yl)-2-(2-pyridinyl)-3-Butyn-2-ol] | < 1000
33 | CC(O)(C#Cc1ccc2c(c1)N(c1nc(N)ncc1Cl)CC2(C)C)c1ncco1 (centres unmarked) [Example 305, 4-(1-(2-Amino-5-chloro-4-pyrimidinyl)-3,3-dimethyl-2,3-dihydro-1H-indol-6-yl)-2-(1,3-oxazol-2-yl)-3-Butyn-2-ol] | < 1000
34 | CC1(C)CN(c2ccncc2)c2cc(C#C[C@@](C)(O)c3nccs3)ccc21 [Example 306, (2R)-4-(3,3-dimethyl-1-(4-pyridinyl)-2,3-dihydro-1H-indol-6-yl)-2-(1,3-thiazol-2-yl)-3-Butyn-2-ol] | < 1000
35 | CC(O)(C#Cc1ccc2c(c1)N(c1ccncc1)CC2(C)C)c1ncco1 (centres unmarked) [Example 307, 4-(3,3-Dimethyl-1-(4-pyridinyl)-2,3-dihydro-1H-indol-6-yl)-2-(1,3-oxazol-2-yl)-3-butyn-2-ol] | < 1000
36 | CC(O)(C#Cc1ccc2c(c1)N(c1nc(N)ncc1Cl)CC2)c1ccccn1 (centres unmarked) [Example 308, 4-(1-(2-Amino-5-chloro-4-pyrimidinyl)-2,3-dihydro-1H-indol-6-yl)-2-(2-pyridinyl)-3-butyn-2-ol] | < 1000
37 | CC(O)(C#Cc1ccc2ncc(-c3nc(N)ncc3Cl)n2c1)c1ncco1 (centres unmarked) [Example 309, 4-(3-(2-Amino-5-chloro-4-pyrimidinyl)imidazo[1,2-a]pyridin-6-yl)-2-(1,3-oxazol-2-yl)-3-Butyn-2-ol] | < 1000
38 | CC(O)(C#Cc1ccc2c(c1)N(c1ccncc1)CC2(C)C)c1ccccn1 (centres unmarked) [Example 310, 4-(3,3-Dimethyl-1-(4-pyridinyl)-2,3-dihydro-1H-indol-6-yl)-2-(2-pyridinyl)-3-butyn-2-ol] | < 1000

Source: patent publication US20110086834A1, “ALKYNYL ALCOHOLS AS KINASE INHIBITORS” (AMGEN INC., priority 2008, published 2011)
